Results published in US7160708B2, “Fatty alcohol oxidase genes and proteins from Candida tropicalis and methods relating thereto” (Cognis Corporation, priority 2002, dated 2007).

Tests used:
FAO1 or FAO2 = test: Alcohols used for substrate specificity testing, activity detected with either enzyme; assay type: biochemical, Candida tropicalis; parameters: key: X: Activity detected using this substrate with either FAO1 or FAO2; conditions: final alcohol concentration 200 μM
Description: The assay procedure used is a modification of an assay used by Kemp et al (1). The assay is a two-enzyme coupled reaction. Dodecanol was used as the substrate for the FAO, which oxidizes the dodecanol to dodecanal. At the same time it reduces molecular oxygen to hydrogen peroxide. A second enzyme in the reaction mixture, peroxidase derived from horseradish (HRP), uses electrons obtained by oxidizing hydrogen peroxide to […] 2,2′-azino-bis(3-ethylbenzthiazoline-6-sulfonic acid) (ABTS) in the reaction mixture. […] absorbs strongly at 405 nm. The quality of HRP is important, since it has been observed that commercially obtained preparations vary in quality. It is necessary, therefore, to obtain preparations of highest purity. The HRP (Sigma #P8415) was made at a concentration of 2 mg/ml (≈250 units/mg) in 50 mM potassium phosphate buffer, pH 7.6.
After adding the extract, the activity was generally read at 405 nm for one minute at room temperature. The amount of extract that was added to the reaction mixture was varied so that the activity fell within the range of 0.2 to 1.0 ΔA^405 nm/min. Alcohol oxidase activity was reported as specific activity units/mg protein (1 unit=μmole substrate oxidized/min). An extinction coefficient at 405 nm of 18.4 was used for ABTS and was equivalent to 0.5 mM oxidized substrate. In certain substrate-specificity experiments, 200 mM HEPES buffer, pH 7.6, containing 0.5% Triton X100 was used in place of the 200 mM HEPES buffer in the reaction mixture described above. The detergent aided in solubilizing some of the more water-insoluble substrates tested.
FAO1, FAO2a and FAO2a′ were tested for their activity with various alcohols. The alcohols shown in Table 5 were prepared in 20 mM stock solutions in acetone. Alcohols showing activity with either FAO1 or FAO2a are indicated. The final concentration of the alcohol used in the substrate specificity experiment was 200 μM. These same alcohols were used to determine the Km and Vmax of FAO1, FAO2a, and FAO2a′. […] There was a big drop in activity in going from a C8 alcohol to a C6 alcohol with FAO1, FAO2a, and FAO2a′. FAO2a and FAO2a′ oxidize 2-octanols fairly well; however no activity was detected with FAO1. In contrast, FAO1 oxidizes ω-hydroxy fatty acids well, but no activity for ω-hydroxy fatty acids was measured with FAO2a and FAO2a′ (FIG. 6). […] Although the substrate specificity of FAO2b was not performed, due to the close homology with FAO2a, it is likely to be very similar.

CCCCCCCCCCCCCCO = test: purified protein, by the assay type
CCCCCCCCO = test: purified protein, by the assay type
CCCCCCCCC(C)O = test: purified protein, by the assay type
C=CCCCCCCCCCO = test: purified protein, by the assay type
CCCCCCCCCCC(O)CO = test: purified protein, by the assay type
OCCCCCCCCCCO = test: purified protein, by the assay type
CCCCCCCCCC(C)O = test: purified protein, by the assay type
CCCCCCCCCCCCCCCCO = test: purified protein, by the assay type
CCCCCCCCCCCCO = test: purified protein, by the assay type
CCCCCCCCCCO = test: purified protein, by the assay type
CCCCCCCCCCC(C)O = test: purified protein, by the assay type
CCCCCCCCCCCCCCC(C)O = test: purified protein, by the assay type
OCCCCCCCCCCCCCCCCO = test: purified protein, by the assay type
[1] = system: FAO from C. tropicalis (ATCC 20336); conditions: cited from earlier work; for Oxidation by C. tropicalis FAO (Kemp et al. 1988): cells grown on hexadecane; for Oxidation by purified C. tropicalis FAO: purified enzyme (ref. 3)
FAO2a = FAO2a (Candida tropicalis, UniProt Q6QIR5, S177L); assay type: biochemical; conditions: for Activity of FAO2a with the alcohol (substrate specificity): 200 μM alcohol, relative to dodecanol set at 100%, FIG. 4-6; for Km FAO2a: pH 7.6, HEPES/Triton X-100 buffer, enzyme constant, alcohol concentration varied
Chain of FAO2a (Q6QIR5 whole entry S177L): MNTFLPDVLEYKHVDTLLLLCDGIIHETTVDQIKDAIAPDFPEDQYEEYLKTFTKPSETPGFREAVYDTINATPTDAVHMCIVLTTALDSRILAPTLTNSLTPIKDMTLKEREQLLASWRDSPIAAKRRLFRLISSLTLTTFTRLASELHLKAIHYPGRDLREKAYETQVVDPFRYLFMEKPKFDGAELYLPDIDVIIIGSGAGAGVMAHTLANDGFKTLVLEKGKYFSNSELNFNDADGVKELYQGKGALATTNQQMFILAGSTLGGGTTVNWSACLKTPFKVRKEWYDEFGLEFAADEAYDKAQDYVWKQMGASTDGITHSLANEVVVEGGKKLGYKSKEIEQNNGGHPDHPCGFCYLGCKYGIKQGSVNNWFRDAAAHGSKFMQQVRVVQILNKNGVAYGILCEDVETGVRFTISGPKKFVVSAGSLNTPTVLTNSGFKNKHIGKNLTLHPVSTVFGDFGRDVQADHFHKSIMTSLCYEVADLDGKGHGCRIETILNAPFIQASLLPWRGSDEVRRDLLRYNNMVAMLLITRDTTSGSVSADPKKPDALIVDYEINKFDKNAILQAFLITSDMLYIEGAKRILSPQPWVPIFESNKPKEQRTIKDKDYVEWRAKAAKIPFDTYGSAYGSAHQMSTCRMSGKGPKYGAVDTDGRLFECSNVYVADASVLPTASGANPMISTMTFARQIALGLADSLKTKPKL
Description: (§1) The assay is a two-enzyme coupled reaction. […] ABTS absorbs strongly at 405 nm.

FAO2a′ = FAO2a′ (Candida tropicalis, UniProt Q6QIR5); test: FAO enzyme assay (HRP/ABTS coupled) with FAO2a′ (CTG-codon-altered FAO2a) expressed in E. coli: substrate specificity and Km; conditions: 200 μM alcohol; relative to dodecanol set at 100%; FIG. 4-6
Chain of FAO2a′ (Q6QIR5 entry or part of it): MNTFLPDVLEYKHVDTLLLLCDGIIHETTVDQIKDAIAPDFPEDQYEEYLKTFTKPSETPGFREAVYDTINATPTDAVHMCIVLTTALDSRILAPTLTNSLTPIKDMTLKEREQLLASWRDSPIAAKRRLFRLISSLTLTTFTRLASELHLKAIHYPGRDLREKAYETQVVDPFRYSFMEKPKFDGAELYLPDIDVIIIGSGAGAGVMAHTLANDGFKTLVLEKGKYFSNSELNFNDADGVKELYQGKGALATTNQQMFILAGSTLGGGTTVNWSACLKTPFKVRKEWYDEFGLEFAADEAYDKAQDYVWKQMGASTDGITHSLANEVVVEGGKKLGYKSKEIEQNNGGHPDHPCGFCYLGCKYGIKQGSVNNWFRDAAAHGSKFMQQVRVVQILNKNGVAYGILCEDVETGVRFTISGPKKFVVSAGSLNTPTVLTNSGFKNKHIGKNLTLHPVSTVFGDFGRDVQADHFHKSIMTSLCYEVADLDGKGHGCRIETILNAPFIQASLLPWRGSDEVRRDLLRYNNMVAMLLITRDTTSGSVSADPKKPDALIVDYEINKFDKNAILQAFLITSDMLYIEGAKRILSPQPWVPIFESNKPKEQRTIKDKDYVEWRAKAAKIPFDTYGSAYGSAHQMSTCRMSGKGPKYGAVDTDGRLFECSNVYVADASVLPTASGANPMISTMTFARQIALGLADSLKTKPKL
Description: The assay is a two-enzyme coupled reaction. […] At the same time it reduces molecular oxygen to hydrogen peroxide. A second enzyme in the reaction mixture, peroxidase derived from horseradish (HRP), uses electrons obtained by oxidizing hydrogen peroxide to reduce 2,2′-azino-bis(3-ethylbenzthiazoline-6-sulfonic acid) (ABTS) in the reaction mixture. Reduced ABTS absorbs strongly at 405 nm. […] The HRP (Sigma #P8415) was made at a concentration of 2 mg/ml (≈250 units/mg) in 50 mM potassium phosphate buffer, pH 7.6.
Initially, only the properties of the enzyme derived from the native sequence of FAO2a were determined. […] The properties of both FAO2a and FAO2a′ were determined as described in the following examples.
FAO1, FAO2a and FAO2a′ were tested for their activity with various alcohols. The alcohols shown in Table 5 were prepared in 20 mM stock solutions in acetone. […] The final concentration of the alcohol used in the substrate specificity experiment was 200 μM. These same alcohols were used to determine the Km and Vmax of FAO1, FAO2a, and FAO2a′.
(§2) In this case, all reactions contained the same amount of acetone (20 μl/ml).
O=C(O)CCCCCCCCCCCCCCCO = test: purified protein, by the assay type; conditions: other: pH 7.6, HEPES/Triton X-100 buffer, enzyme constant, alcohol concentration varied
Description: The assay is a two-enzyme coupled reaction. […] At the same time it reduces molecular oxygen to hydrogen peroxide. A second enzyme in the reaction mixture, peroxidase derived from horseradish (HRP), uses electrons obtained by oxidizing hydrogen peroxide to reduce 2,2′-azino-bis(3-ethylbenzthiazoline-6-sulfonic acid) (ABTS) in the reaction mixture. Reduced ABTS absorbs strongly at 405 nm. The quality of HRP is important, since it has been observed that commercially obtained preparations vary in quality. It is necessary, therefore, to obtain preparations of highest purity. The HRP (Sigma #P8415) was made at a concentration of 2 mg/ml (≈250 units/mg) in 50 mM potassium phosphate buffer, pH 7.6.
FAO1, FAO2a and FAO2a′ were tested for their activity with various alcohols. […] The final concentration of the alcohol used in the substrate specificity experiment was 200 μM. These same alcohols were used to determine the Km and Vmax of FAO1, FAO2a, and FAO2a′.
as §2

FAO1 = FAO1 (Candida tropicalis, UniProt Q6QIR6); test: FAO enzyme assay (HRP/ABTS coupled) with FAO1 expressed in E. coli: substrate specificity and Km; conditions: for Activity of FAO1 with the alcohol (substrate specificity): 200 μM alcohol, relative to dodecanol set at 100%, FIG. 4-6
Chain of FAO1 (Q6QIR6 entry or part of it): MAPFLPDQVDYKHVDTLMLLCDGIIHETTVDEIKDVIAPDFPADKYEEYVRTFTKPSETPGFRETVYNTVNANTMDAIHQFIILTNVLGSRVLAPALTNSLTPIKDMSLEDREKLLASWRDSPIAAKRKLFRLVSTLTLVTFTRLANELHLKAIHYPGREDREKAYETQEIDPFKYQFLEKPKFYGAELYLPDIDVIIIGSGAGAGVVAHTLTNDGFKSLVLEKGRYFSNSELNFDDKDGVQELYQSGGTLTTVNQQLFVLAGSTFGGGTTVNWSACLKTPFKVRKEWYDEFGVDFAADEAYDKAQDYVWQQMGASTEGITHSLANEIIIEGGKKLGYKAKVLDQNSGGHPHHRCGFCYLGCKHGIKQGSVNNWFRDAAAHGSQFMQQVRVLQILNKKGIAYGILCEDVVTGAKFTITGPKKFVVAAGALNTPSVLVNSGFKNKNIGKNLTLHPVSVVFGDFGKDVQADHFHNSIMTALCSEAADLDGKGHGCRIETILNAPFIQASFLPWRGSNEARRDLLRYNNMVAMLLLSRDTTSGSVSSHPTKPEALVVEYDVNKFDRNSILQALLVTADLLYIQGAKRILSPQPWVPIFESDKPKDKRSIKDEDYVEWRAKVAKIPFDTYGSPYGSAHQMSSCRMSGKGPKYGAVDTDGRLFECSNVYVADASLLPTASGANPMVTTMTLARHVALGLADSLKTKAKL
Description: as §1

FAO from C. maltosa = conditions: cited from earlier work
fatty alcohol oxidase = test: FAO activity of extracts made from fermentor samples induced with HOSFFA; assay type: biochemical, Candida tropicalis; conditions: data not shown
Description: as §1

[2] = other: 0.1 M HEPES, pH 7.6, substrate stocks in acetone (20 μl/ml)
[3] = other: pH 7.6, HEPES/Triton X-100 buffer, enzyme constant, alcohol concentration varied

CCCCCCCCCCO [Decanol]
Activity Detected (FAO1 or FAO2): X

CCCCCCCCCCCCCCC(C)O (centres unmarked) [2-Hexadecanol]
Activity Detected (FAO1 or FAO2): X

CCCCCCO [Hexanol]
Activity Detected (FAO1 or FAO2): X

FAO2a′ (Candida tropicalis)
Km (CCCCCCCCCCCCCCO; [2]): 2.4 µM | Km (CCCCCCCCO; [2]): 654 µM | Km (CCCCCCCCC(C)O; [2]): 1090 µM | Km (C=CCCCCCCCCCO; [2]): 36.1 µM | Km (CCCCCCCCCCC(O)CO; [2]): 928 µM | Km (OCCCCCCCCCCO; [2]): 1607 µM | Km (CCCCCCCCCC(C)O; [2]): 162 µM | Km (CCCCCCCCCCCCCCCCO; [2]): 85 µM | Km (CCCCCCCCCCCCO; [2]): 4.4 µM | Km (CCCCCCCCCCO; [2]): 69.6 µM | Km (CCCCCCCCCCC(C)O; [2]): 75.3 µM | Km (CCCCCCCCCCCCCCC(C)O; [2]): 720 µM | Km (OCCCCCCCCCCCCCCCCO; [2]): 16.3 µM

CCCCCCCCCCCCO [Dodecanol]
Oxidation by C. tropicalis FAO (Kemp et al. 1988) [1]: maximal activity | Activity of FAO2a with the alcohol (substrate specificity) (FAO2a): preferred 1-dodecanol above all other 1-alkanols | Km FAO2a (FAO2a): lowest Km values | Activity of FAO2a′ with the alcohol (substrate specificity) (FAO2a′): preferred 1-dodecanol above all other 1-alkanols | Activity Detected (FAO1 or FAO2): X

FAO1 (Candida tropicalis)
Km (CCCCCCCCCCCCCCO; [3]): 28.1 μM μM | Km (CCCCCCCCO; [3]): 41.0 μM μM | Km (C=CCCCCCCCCCO; [3]): 9.9 μM μM | Km (O=C(O)CCCCCCCCCCCCCCCO): 7.4 μM μM | Km (OCCCCCCCCCCO; [3]): 67.0 μM μM | Km (CCCCCCCCCCCCCCCCO; [3]): 11.9 μM μM | Km (CCCCCCCCCCCCO; [3]): 14.9 μM μM | Km (CCCCCCCCCCO; [3]): 15.1 μM μM | Km (OCCCCCCCCCCCCCCCCO; [3]): 10.3 μM μM

CCCCCCCCO [Octanol]
Activity of FAO1 with the alcohol (substrate specificity) (FAO1): preferred 1-octanol as substrate | Oxidation by C. maltosa FAO (FAO from C. maltosa): highest activity | Activity Detected (FAO1 or FAO2): X

O=C(O)CCCCCCCCCCCCCCCO [16-hydroxy-hexadecanoic, 16-hydroxyhexadecanoic acid]
Oxidation by C. tropicalis FAO (Kemp et al. 1988) [1]: oxidize | Km FAO1 (FAO1; pH 7.6, HEPES/Triton X-100 buffer, enzyme constant, alcohol concentration varied): lowest Km value | Oxidation by C. maltosa FAO (FAO from C. maltosa): fairly low rates of oxidation | Activity of extracts from HOSFFA-induced fermentor samples with the alcohol (fatty alcohol oxidase): good activity

O=C(O)CCCCCCCCCCCO [12-Hydroxydodecanoic acid]
Oxidation by C. tropicalis FAO (Kemp et al. 1988) [1]: not | Oxidation by purified C. tropicalis FAO [1]: additional activity | Activity Detected (FAO1 or FAO2): X

CCCCCCCCCCCCCCO [Tetradecanol]
Km FAO2a (FAO2a): lowest Km values | Activity of FAO1 with the alcohol (substrate specificity) (FAO1): the preferred longer-chain alcohol | Activity Detected (FAO1 or FAO2): X

OCCCCCCCCCCO [1,10-Decanediol]
Activity Detected (FAO1 or FAO2): X

CCCCCCCCCCCCCCCCO [Hexadecanol]
Activity Detected (FAO1 or FAO2): X

CCCCCCC(O)CO (centres unmarked) [1,2-Octanediol]
Activity Detected (FAO1 or FAO2): X

CCCCCCCCCC(C)O (centres unmarked) [2-Undecanol]
Activity Detected (FAO1 or FAO2): X

FAO2a (Candida tropicalis; S177L)
Km (CCCCCCCCCCCCCCO; [3]): 4.6 µM | Km (CCCCCCCCO; [3]): 503 µM | Km (CCCCCCCCC(C)O; [3]): 934 µM | Km (C=CCCCCCCCCCO; [3]): 45 µM | Km (CCCCCCCCCCC(O)CO; [3]): 998 µM | Km (OCCCCCCCCCCO; [3]): 425 µM | Km (CCCCCCCCCC(C)O; [3]): 141 µM | Km (CCCCCCCCCCCCCCCCO; [3]): 56 µM | Km (CCCCCCCCCCCCO; [3]): 2.5 µM | Km (CCCCCCCCCCO; [3]): 74 µM | Km (CCCCCCCCCCC(C)O; [3]): 41.3 µM | Km (CCCCCCCCCCCCCCC(C)O; [3]): 350 µM | Km (OCCCCCCCCCCCCCCCCO; [3]): 37.3 µM

O=C(O)CCCCCCCCCO [10-Hydroxydecanoic acid]
Activity Detected (FAO1 or FAO2): X

16-Hydroxydodecanoic acid
Activity Detected (FAO1 or FAO2): X

C=CCCCCCCCCCO [10-Undecen-1-ol]
Activity of FAO2a with the alcohol (substrate specificity) (FAO2a): much better than FAO1 | Activity of FAO2a′ with the alcohol (substrate specificity) (FAO2a′): much better than FAO1 | Activity Detected (FAO1 or FAO2): X

CCCCCCCCCCC(C)O (centres unmarked) [2-Dodecanol]
Oxidation by purified C. tropicalis FAO [1]: additional activity | Activity of extracts from HOSFFA-induced fermentor samples with the alcohol (fatty alcohol oxidase): no activity | Activity Detected (FAO1 or FAO2): X

CCCCCCCCC(C)O (centres unmarked) [2-Decanol]
Activity Detected (FAO1 or FAO2): X

CCCCCCCCCCC(O)CO (centres unmarked) [1,2-Dodecanediol]
Activity Detected (FAO1 or FAO2): X

OCCCCCCCCCCCCCCCCO [1,16-Hexadecanediol]
Activity Detected (FAO1 or FAO2): X
